For one data set, the system named is guinea pigs. Description: citric acid aerosol coughing test. The settings on record: for ED50 / inhibition at 1 mg/kg / inhibition at 5 mg/kg / inhibition at 10 mg/kg: Cavia porcellus, inhaled or nasal; for inhibition at 1 mg/kg / inhibition at 5 mg/kg / inhibition at 10 mg/kg: read-out: inhib. %; for coughs in 3 min mean + SD: fendizoate, guinea pigs, 8 animals.

The subject of data set [1] is mouse. Description: narcosis from hexobarbital (interaction with central depressants). Conditions: fendizoate; for Duration of sleep: mean ± SD after intraperitoneal 80 mg/kg sodium hexobarbital, mouse; for % variation: sleeping time vs. vehicle controls.
Data set [2] deals with mouse. The data set is described as follows: test of potentiation of pentylenetetrazole (interaction with central stimulants). The settings on record: fendizoate, dose 150 mg/kg; for % variation: mean score vs. vehicle controls; for Mean score: scores 0 to 4 after intraperitoneal 50 mg/kg PTZ, mouse, 20 animals.
The next data set relates to rat. Description: acute toxicity (LD50), rat. Conditions: HCl, female rat.
The test system of data set [3] is mouse. Description: acute toxicity (LD50), mouse. The settings on record: HCl, female mouse.
A short description of data set [4]: acute toxicity (LD50), rat. The settings on record: rat, in vivo, ip, LD50 and 95% conf. lim., HCl; female rat; intraperit.
The nature of data set [5]: acute toxicity (LD50), mouse. Conditions: mouse, in vivo, LD50 and 95% conf. lim., HCl, female mouse.

Marks after values point to notes of the source that are not given here.

Data on 3 compounds can be found in patent EP0894794A1, “Optical isomers of cloperastine” (AESCULAPIUS FARMACEUTICI S.r.l., priority 1997, dated 1999).

`Clc1ccc(C(OCCN2CCCCC2)c2ccccc2)cc1` (racemic) [DL-CLO, DL-cloperastine] came in with an ED50 with guinea pigs of 7.22 mg/kg. Also, the inhibition at 1 mg/kg with guinea pigs stood at 13.5%. Further, the inhibition at 5 mg/kg in the data set with guinea pigs turned out to be 41.9%. For the same compound, the inhibition at 10 mg/kg in the data set on guinea pigs worked out at 57.2%. The figures for the “coughs in 3 min mean + SD” value in the data set with guinea pigs (dose 1 mg/kg), in the data set on guinea pigs (dose 5 mg/kg) and in the data set on guinea pigs (dose 10 mg/kg) were 57.7 ± 8.21, 38.4 ± 5.33 and 28.3 ± 4.50, respectively. For the same compound, the Duration of sleep in the data set with mouse [1] (dose 5 mg/kg) was 53.80 ± 9.05 min; in the data set on mouse [1] (dose 15 mg/kg), 45.50 ± 6.39 min; with mouse [1] (dose 50 mg/kg) it was 25.80 ± 7.30 min; with mouse [1] (dose 150 mg/kg) it was 10.40 ± 4.18 min. The “% variation” value with mouse [1] (dose 5 mg/kg) is “+61.1**(°°) %”; in the data set on mouse [1] (dose 15 mg/kg), “+36.2**(°) %”; in the data set with mouse [1] (dose 50 mg/kg), -22.8(°°) %; in the data set on mouse [1] (dose 150 mg/kg), -68.9** %; with mouse [2], 122.7%. Further, the Mean score in the data set on mouse [2] is recorded as 2.45**(°°).
In the case of `Clc1ccc(C(OCCN2CCCCC2)c2ccccc2)cc1` (single isomer, unassigned) [D-CLO, D(+) cloperastine], the “LD50 and 95% conf. lim.” value is reported as 106 (82-138) mg/kg in the data set on rat (intraperit.), 602 (474-764) mg/kg with rat (oral), 96 (74.4-123.8) mg/kg with mouse [3] (intraperit.) and 269 (219-331) mg/kg with mouse [3] (oral). Further, the Duration of sleep came out at 71.70 ± 10.92 min in the data set with mouse [1] (dose 5 mg/kg), 45.80 ± 8.67 min in the data set with mouse [1] (dose 15 mg/kg), 22.40 ± 6.37 min in the data set with mouse [1] (dose 50 mg/kg) and 8.90 ± 3.01 min in the data set on mouse [1] (dose 150 mg/kg). In addition, the “% variation” value in the data set on mouse [1] (dose 5 mg/kg, 5 mg/kg) is listed as “+114.7**(°°) %”; with mouse [1] (dose 15 mg/kg, 15 mg/kg), “+37.1*(°) %”; in the data set with mouse [1] (dose 50 mg/kg, 50 mg/kg) it was -32.9*(°°) %; in the data set on mouse [1] (dose 150 mg/kg, 150 mg/kg), -73.4**(°°) %; in the data set with mouse [2] (150 mg/kg) it was 186.4%. Moreover, in the data set with mouse [2], the Mean score is recorded as 3.15**(°°).
Regarding `Clc1ccc(C(OCCN2CCCCC2)c2ccccc2)cc1` (single isomer, unassigned) [L-CLO, L(-) cloperastine], the LD50 in data set [4] is 195 mg/kg; in data set [5] (ip, intraperit.), 171 mg/kg; in data set [5] (po), 512 mg/kg. The “LD50 and 95% conf. lim.” value with rat (oral) is listed as 1226 (981-1532) mg/kg. The compound also registered an ED50 in the data set with guinea pigs of 4.23 mg/kg. In the data set on guinea pigs, the inhibition at 1 mg/kg was found to be 32.7%. Further, the inhibition at 5 mg/kg in the data set with guinea pigs came out at 45.4%. The inhibition at 10 mg/kg in the data set with guinea pigs stood at 66.3%. The “coughs in 3 min mean + SD” value in the data set with guinea pigs (dose 1 mg/kg) was found to be 44.5 ± 8.65; in the data set with guinea pigs (dose 5 mg/kg), 36.1 ± 5.24; in the data set with guinea pigs (dose 10 mg/kg) it was 22.3 ± 5.20. In addition, the Duration of sleep came out at 38.90 ± 7.89 min in the data set with mouse [1] (dose 5 mg/kg), 67.60 ± 16.75 min in the data set on mouse [1] (dose 15 mg/kg), 43.10 ± 9.07 min in the data set with mouse [1] (dose 50 mg/kg) and 18.70 ± 2.87 min in the data set with mouse [1] (dose 150 mg/kg). Also, the “% variation” value in the data set with mouse [1] (dose 5 mg/kg, 5 mg/kg) was “+16.5%”; with mouse [1] (dose 15 mg/kg, 15 mg/kg), “+102.3** %”; in the data set on mouse [1] (dose 50 mg/kg, 50 mg/kg) it was “+29.0(°) %”; with mouse [1] (dose 150 mg/kg, 150 mg/kg), -44.1** %; with mouse [2] (150 mg/kg), 36.4%. Further, the Mean score in the data set on mouse [2] was determined as 1.50.
